Read-outs that look alike come from different tables or passages of the source. Marks after values point to notes of the source that are not given here. Where no end group is shown, it is not given here. [ ]: non-standard residue; d: D form. The star is where a group is joined. Dnp = O=[N+]([O-])c1ccc(*)c([N+](=O)[O-])c1; 2Abz = Nc1ccccc1C(=O)O
Experiments:
thermolysin [1] = biological target: T1, thermolysin (Bacillus thermoproteolyticus, UniProt P00800); conditions: substrate 2.5 μM, protease 0.1 μM, two hours; hydrolysate amino acid-INH
Method: (§1) For the meaningful comparison of proteases, a hydrolysis reaction was performed under the optimum conditions as reported in other documents (regarding chymotrypsin, subtilisin, thermolysin and pepsin, refer to R. Beynon, J. S. Bond, Proteolytic Enzymes (Second Edition), Oxford University Press, 2001, pp. 295-316; regarding trypsin, proteinase K, carboxy peptidase A, collagenase, dispase, aspergillopepsin, papain, chymopapain, bromelain, cathepsin B, cathepsin L, and cathepsin S, refer to the catalog of Sigma-Aldrich Corporation).
(§2) Before the reaction, the mixtures of the reaction buffer solutions and proteases were previously incubated for 30 minutes in a water bath in which the temperature was adjusted to an analysis temperature. The hydrolysis reaction was initiated by adding a substrate dissolved in DMSO. The volume of the added substrate solution was controlled such that the final concentration of DMSO was lower than 1.5% (v/v).
The λex and λem were respectively adjusted to 284 nm and 410 nm with respect to papain, chymopapain, bromelain, cathepsins, aspergillopepsin and pepsin, and the λex and λem were respectively adjusted to 320 nm and 410 nm with respect to chymotrypsin, trypsin, subtilisin, proteinase K, thermolysin, carboxypeptidase A, collagenase and dispase. The reaction was performed under alkaline conditions.
The fluorescence measured at the end of the reaction was expressed as a final fluorescence.
The initial concentrations of each substrate and protease were respectively set to 2.5 μM and 0.1 μM. The hydrolysis reaction was performed for two hours. Reference numbers on an X-axis denoted the following: C1=papain; C2=chymopapain; C3=bromelain; S1=chymotrypsin; S2=trypsin; S3=subtilisin; S4=proteinase K; M1=thermolysin; M2=carboxypeptidase A; M3=dispase; M4=collagenase; A1=pepsin; and A2=aspergillopepsin. Each experiment was repeated at least three times.

dispase = biological target: T2, dispase (Paenibacillus polymyxa, UniProt P29148); assay: Protease-catalyzed hydrolysis, restored DBDY fluorescence (selectivity, FIGS. 11-19); type: biochemical, bacillus polymyxa; conditions: substrate 2.5 μM, protease 0.1 μM, two hours; hydrolysate amino acid-INH
T2 construct: dispase derived from bacillus polymyxa; purchased Sigma-Aldrich Chemical Co; host or cells: Bacillus polymyxa
Method: (§3) The reaction was performed under alkaline conditions.
The hydrolysis reaction was performed for two hours. […] Each experiment was repeated at least three times.

chymotrypsin = biological target: T3, chymotrypsin (Bos taurus, UniProt P00766); assay: Degree of hydrolysis by protease (Table 3); type: biochemical, bovine; conditions: after 2 hours, protease 10 μM, substrate 0.2 mM (G1-G3, L1-L3) or 0.1 mM (G4, L4), n.d. = no hydrolysis was detected, hydrolysate Gly-INH (G), Lys-INH (L1-L3)
T3 construct: chymotrypsin and trypsin derived from fetal bovine pancreas; purchased Sigma-Aldrich Chemical Co; host or cells: bovine pancreas
Method: (§4) A hydrolysate was measured using a HPLC system.

pepsin = biological target: T4, pepsin (Sus scrofa, UniProt P00791); assay: Degree of hydrolysis by protease (Table 3); type: biochemical, pig; conditions: after 2 hours; protease 10 μM; substrate 0.2 mM (G1-G3, L1-L3) or 0.1 mM (G4, L4); n.d. = no hydrolysis was detected; hydrolysate INH
T4 construct: pepsin derived from pig gastric mucosa; purchased Sigma-Aldrich Chemical Co; host or cells: pig gastric mucosa
Method: as §4

thermolysin [2] = biological target: T1, thermolysin; conditions: after 2 hours; protease 10 μM; substrate 0.2 mM (G1-G3, L1-L3) or 0.1 mM (G4, L4); n.d. = no hydrolysis was detected; hydrolysate INH
Method: as §1, §2
A hydrolysate was measured using a HPLC system. In order to prepare a sample, a hydrolysis reaction was terminated by adding 2% (v/v) 1M HCl with respect to a serine protease, cysteine protease and metalloprotease, and adding 1M NaOH with respect to an aspartic protease. The separation was performed using the mixture of 10 mM-ammonium bicarbonate and acetonitrile as an eluent in C-18 column (particle size: 5 μm, 250 mm×4.6 mm, pore size: 80 Å, Phenomenex, USA). The elution was performed for 15 minutes, while the linear gradient of acetonitrile was increased from 0 to 60%. The flow rate and separation temperature of the eluent were maintained at 1 mL min^−1 and 35° C. The hydrolysate was detected at a wavelength of 254 nm.
Based on the report that a hydrophobic amino acid such as phenylalanine was preferred at a P2 position in most of the papain-like cysteine proteases, Boc-aromatic amino acid-Gly-INH and Boc-aromatic amino acid-Lys-INH were prepared in particular, and experimented as a substrate with respect to chymotrypsin, trypsin, papain, pepsin and thermolysis.

papain = biological target: T5, papain (Carica papaya, UniProt P00784); assay: Degree of hydrolysis by protease (Table 3); type: biochemical, papaya latex; conditions: after 2 hours; protease 10 μM; substrate 0.2 mM (G1-G3, L1-L3) or 0.1 mM (G4, L4); hydrolysate INH
T5 construct: papain and chymopapain derived from papaya latex; purchased Sigma-Aldrich Chemical Co; host or cells: papaya latex
T5 sequence (P00784 134-345): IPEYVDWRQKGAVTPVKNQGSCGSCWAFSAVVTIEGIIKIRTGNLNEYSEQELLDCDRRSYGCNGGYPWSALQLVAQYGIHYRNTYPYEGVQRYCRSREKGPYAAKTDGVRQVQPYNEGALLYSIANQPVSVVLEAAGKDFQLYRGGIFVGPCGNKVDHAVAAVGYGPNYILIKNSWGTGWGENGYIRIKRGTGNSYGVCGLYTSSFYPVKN
Method: as §4

trypsin = biological target: T6, trypsin (Bos taurus, UniProt P00760); assay: Degree of hydrolysis by protease (Table 3); type: biochemical, bovine; conditions: after 2 hours; protease 10 μM; substrate 0.2 mM (G1-G3, L1-L3) or 0.1 mM (G4, L4); n.d. = no hydrolysis was detected; hydrolysate INH
T6 construct: chymotrypsin and trypsin derived from fetal bovine pancreas; purchased Sigma-Aldrich Chemical Co; host or cells: bovine pancreas
T6 sequence (P00760 24-246): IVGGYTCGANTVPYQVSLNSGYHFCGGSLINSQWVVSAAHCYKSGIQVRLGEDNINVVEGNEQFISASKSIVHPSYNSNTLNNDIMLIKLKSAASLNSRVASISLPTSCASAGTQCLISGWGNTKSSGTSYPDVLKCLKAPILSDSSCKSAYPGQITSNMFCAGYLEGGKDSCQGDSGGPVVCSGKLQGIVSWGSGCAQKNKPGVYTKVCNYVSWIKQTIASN
Method: as §4

cathepsin B [3] = biological target: T7, cathepsin B (Homo sapiens, UniProt P07858); assay: Selective hydrolysis by cathepsins, fluorescence (FIG. 20); type: biochemical; set-up: cathepsins B and L derived from a human liver; purchased Sigma-Aldrich Chemical Co; host or cells: human liver; conditions: inventors' earlier research on DBDY-(INH)2; conditions not given
Method: as §3
(§5) The results of experiments were illustrated in FIG. 20. Since the hydrolysis by cathepsin B was faster than the hydrolyses by papain and chymopapain, the reaction was performed with a substrate (concentration: 1.0 μM) and a protease (concentration: […]) of which the concentrations were set lower than those in Experimental Example 2 (substrate (concentration: 2.5 μM) and protease (concentration: 0.1 μM) reacted for two hours) for 30 minutes in FIG. 20. C1, C2, CB, CL, and CS represented on an X-axis respectively denote papain, chymopapain, cathepsin B, cathepsin L, and cathepsin S. Each experiment was repeated at least three times.

cathepsin L = biological target: T8, cathepsin L (Homo sapiens, UniProt P07711); assay: as above; type: biochemical; conditions: inventors' earlier research on DBDY-(INH)2; conditions not given
T8 construct: cathepsins B and L derived from a human liver; purchased Sigma-Aldrich Chemical Co; host or cells: human liver
Method: as §3, §5

cathepsin B [4] = biological target: T7, cathepsin B; conditions: reported for other substances, cited from earlier work

T2 sequence (P29148 287-590): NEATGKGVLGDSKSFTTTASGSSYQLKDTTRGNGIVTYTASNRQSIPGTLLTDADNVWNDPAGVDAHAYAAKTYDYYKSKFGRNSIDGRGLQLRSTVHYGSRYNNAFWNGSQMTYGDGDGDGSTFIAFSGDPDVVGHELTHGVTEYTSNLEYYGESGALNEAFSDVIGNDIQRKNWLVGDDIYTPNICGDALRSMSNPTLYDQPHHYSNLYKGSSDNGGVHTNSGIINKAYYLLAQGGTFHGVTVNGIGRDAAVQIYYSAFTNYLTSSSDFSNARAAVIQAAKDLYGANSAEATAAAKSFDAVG
T1 sequence (P00800 233-548): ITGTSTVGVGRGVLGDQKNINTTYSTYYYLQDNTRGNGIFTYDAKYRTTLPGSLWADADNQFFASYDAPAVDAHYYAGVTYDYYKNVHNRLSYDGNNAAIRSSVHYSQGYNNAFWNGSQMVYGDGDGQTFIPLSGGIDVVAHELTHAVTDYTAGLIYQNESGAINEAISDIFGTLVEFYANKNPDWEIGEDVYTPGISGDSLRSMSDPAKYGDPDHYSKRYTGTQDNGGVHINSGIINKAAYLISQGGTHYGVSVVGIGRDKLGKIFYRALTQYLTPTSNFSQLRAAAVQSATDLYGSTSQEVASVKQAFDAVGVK
T4 sequence (P00791 60-385): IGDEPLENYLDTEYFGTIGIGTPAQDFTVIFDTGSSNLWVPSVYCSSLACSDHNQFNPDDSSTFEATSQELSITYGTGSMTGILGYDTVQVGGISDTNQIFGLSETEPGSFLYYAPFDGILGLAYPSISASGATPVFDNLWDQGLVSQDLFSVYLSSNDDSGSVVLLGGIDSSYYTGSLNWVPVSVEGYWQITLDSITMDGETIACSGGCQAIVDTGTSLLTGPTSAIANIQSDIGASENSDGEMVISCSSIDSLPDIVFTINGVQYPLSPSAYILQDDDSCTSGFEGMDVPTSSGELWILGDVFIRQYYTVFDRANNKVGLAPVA
T8 sequence (P07711 114-333): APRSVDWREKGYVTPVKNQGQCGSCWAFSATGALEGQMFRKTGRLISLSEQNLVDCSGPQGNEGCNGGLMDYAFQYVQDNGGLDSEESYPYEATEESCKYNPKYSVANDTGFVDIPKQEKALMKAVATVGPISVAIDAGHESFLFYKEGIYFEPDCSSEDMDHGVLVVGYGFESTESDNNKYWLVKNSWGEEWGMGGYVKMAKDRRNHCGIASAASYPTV

Molecule | sensitivity for thermolysin (hydrolysis, increased fluorescence) (thermolysin [1]) | sensitivity for dispase (hydrolysis, increased fluorescence) (dispase) | degree of hydrolysis by Chymotrypsin (chymotrypsin) | degree of hydrolysis by Papain (papain) [%] | other results
CC[C@H](C)[C@H](NC(=O)C(Cc1ccc(O)c(-c2cc(CC(NC(=O)OC(C)(C)C)C(=O)N[C@H](C(=O)NNC(=O)c3ccncc3)[C@@H](C)CC)ccc2O)c1)NC(=O)OC(C)(C)C)C(=O)NNC(=O)c1ccncc1 (stereo partly shown) [DBDY-(Ile-INH)2] | high sensitivity | high sensitivity | – | – | –
CC(C)(C)OC(=O)NC(Cc1c[nH]c2ccccc12)C(=O)NCC(=O)NNC(=O)c1ccncc1 (stereo not drawn) [Substrate G3, Boc-Trp-Gly-INH] | – | – | 17.3 ± 5.5 ^d % | 58.8 ± 6.2 | degree of hydrolysis by Pepsin (pepsin): 3.21 ± 0.45%; degree of hydrolysis by Thermolysin (thermolysin [2]): 0.74 ± 0.05%
CSCC[C@H](NC(=O)C(Cc1ccc(O)c(-c2cc(CC(NC(=O)OC(C)(C)C)C(=O)N[C@@H](CCSC)C(=O)NNC(=O)c3ccncc3)ccc2O)c1)NC(=O)OC(C)(C)C)C(=O)NNC(=O)c1ccncc1 (stereo partly shown) [DBDY-(Met-INH)2] | high sensitivity | high sensitivity | – | – | –
CC(C)(C)OC(=O)NC(Cc1ccc(O)cc1)C(=O)NC(CCCCN)C(=O)NNC(=O)c1ccncc1 (stereo not drawn) [Substrate L1, Boc-Tyr-Lys-INH] | – | – | 37.6 ± 5.2 ^e % | 77.4 ± 5.8 | degree of hydrolysis by Trypsin (trypsin): 69.6 ± 4.1%; degree of hydrolysis by Pepsin (pepsin): 0.74 ± 0.04%
CC(C)(C)OC(=O)NC(Cc1ccc(O)cc1)C(=O)NCC(=O)NNC(=O)c1ccncc1 (stereo not drawn) [Substrate G1, Boc-Tyr- Gly-INH] | – | – | 38.7 ± 2.9 ^d % | 62.8 ± 2.5 | degree of hydrolysis by Pepsin (pepsin): 2.34 ± 0.45%; degree of hydrolysis by Thermolysin (thermolysin [2]): 0.74 ± 0.02%
CC(C)C[C@H](NC(=O)C(Cc1ccc(O)c(-c2cc(CC(NC(=O)OC(C)(C)C)C(=O)N[C@@H](CC(C)C)C(=O)NNC(=O)c3ccncc3)ccc2O)c1)NC(=O)OC(C)(C)C)C(=O)NNC(=O)c1ccncc1 (stereo partly shown) [DBDY-(Leu-INH)2] | high sensitivity | high sensitivity | – | – | –
CC(C)(C)OC(=O)NC(Cc1c[nH]c2ccccc12)C(=O)NC(CCCCN)C(=O)NNC(=O)c1ccncc1 (stereo not drawn) [Substrate L3, Boc-Trp-Lys-INH] | – | – | 58.3 ± 1.2 ^e % | 93.1 ± 8.9 | degree of hydrolysis by Trypsin (trypsin): 85.1 ± 3.7%; degree of hydrolysis by Thermolysin (thermolysin [2]): 4.04 ± 0.08%
CC(C)(C)OC(=O)NC(Cc1ccc(O)c(-c2cc(CC(NC(=O)OC(C)(C)C)C(=O)NNC(=O)c3ccncc3)ccc2O)c1)C(=O)NNC(=O)c1ccncc1 (stereo not shown) [DBDY-(INH)2, reference compound] | – | – | – | – | hydrolysis by cathepsin B (cathepsin B [3]): not hydrolyzed; hydrolysis by cathepsin L (cathepsin L): not hydrolyzed
CC(C)(C)OC(=O)NC(Cc1ccccc1)C(=O)NCC(=O)NNC(=O)c1ccncc1 (stereo not drawn) [Substrate G2, Boc-Phe-Gly-INH] | – | – | 28.6 ± 3.4 ^d % | 51.0 ± 3.5 | degree of hydrolysis by Pepsin (pepsin): 1.61 ± 0.05%
CC(C)(C)OC(=O)NC(Cc1ccc(O)c(-c2cc(CC(NC(=O)OC(C)(C)C)C(=O)N[C@@H](Cc3ccccc3)C(=O)NNC(=O)c3ccncc3)ccc2O)c1)C(=O)N[C@@H](Cc1ccccc1)C(=O)NNC(=O)c1ccncc1 (stereo partly shown) [DBDY-(Phe-INH)2] | high sensitivity | high sensitivity | – | – | –
CC(C)[C@H](NC(=O)C(Cc1ccc(O)c(-c2cc(CC(NC(=O)OC(C)(C)C)C(=O)N[C@H](C(=O)NNC(=O)c3ccncc3)C(C)C)ccc2O)c1)NC(=O)OC(C)(C)C)C(=O)NNC(=O)c1ccncc1 (stereo partly shown) [DBDY-(Val-INH)2] | high sensitivity | high sensitivity | – | – | –
Abz-Gly-Ile-Val-Arg-Ala-Lys(Dnp)-OH ([2Abz]GIVRAK(Dnp)-OH) | – | – | – | – | Km (cathepsin B [4]; unit inferred): 5.9 µM
CC(C)(C)OC(=O)NC(Cc1ccccc1)C(=O)NC(CCCCN)C(=O)NNC(=O)c1ccncc1 (stereo not drawn) [Substrate L2, Boc-Phe-Lys-INH] | – | – | 53.2 ± 4.8 ^e % | 89.1 ± 2.5 | degree of hydrolysis by Trypsin (trypsin): 81.2 ± 4.9%
Abz-Phe-Arg-Dap(Dnp)-Trp-OH | – | – | – | – | Km (cathepsin B [4]): 3 µM
Abz-Phe-Phe-Dap(Dnp)-Trp-OH | – | – | – | – | Km (cathepsin B [4]): 2.1 µM

From patent US20150293106A1, “DIAROMATIC AMINO ACID SUBSTRATE FOR CATHEPSIN DETECTION” (INDUSTRY-ACADEMIC COOPERATION FOUNDATION, YONSEI UNIVERSITY, priority 2012, published 2015)
